Reference: PMC11423305, “Structure-Based Design of CBP/EP300 Degraders: When Cooperativity Overcomes Affinity” (JACS Au, 2024)
“Also recorded” adds a separate entry of the source.

How the values were obtained:
Type in all cases: cell-based
[1] = biological target: CRBN and CBP catalytic core (Homo sapiens, UniProt Q92793+Q96SW2); experiment: FluoPPI cellular ternary complex formation, CBP catalytic core; settings: U2OS cells, 6 h
CBP = biological target: T1, CBP (Homo sapiens, UniProt Q92793); experiment: Quantification of CBP degradation by Western blotting in LP1 cells
T1 construct: quantification of CBP and EP300 levels by Western blotting following 16 h treatment of LP1 cells; endogenous in cells; host or cells: LP1 cells
T1 sequence (Q92793 whole entry): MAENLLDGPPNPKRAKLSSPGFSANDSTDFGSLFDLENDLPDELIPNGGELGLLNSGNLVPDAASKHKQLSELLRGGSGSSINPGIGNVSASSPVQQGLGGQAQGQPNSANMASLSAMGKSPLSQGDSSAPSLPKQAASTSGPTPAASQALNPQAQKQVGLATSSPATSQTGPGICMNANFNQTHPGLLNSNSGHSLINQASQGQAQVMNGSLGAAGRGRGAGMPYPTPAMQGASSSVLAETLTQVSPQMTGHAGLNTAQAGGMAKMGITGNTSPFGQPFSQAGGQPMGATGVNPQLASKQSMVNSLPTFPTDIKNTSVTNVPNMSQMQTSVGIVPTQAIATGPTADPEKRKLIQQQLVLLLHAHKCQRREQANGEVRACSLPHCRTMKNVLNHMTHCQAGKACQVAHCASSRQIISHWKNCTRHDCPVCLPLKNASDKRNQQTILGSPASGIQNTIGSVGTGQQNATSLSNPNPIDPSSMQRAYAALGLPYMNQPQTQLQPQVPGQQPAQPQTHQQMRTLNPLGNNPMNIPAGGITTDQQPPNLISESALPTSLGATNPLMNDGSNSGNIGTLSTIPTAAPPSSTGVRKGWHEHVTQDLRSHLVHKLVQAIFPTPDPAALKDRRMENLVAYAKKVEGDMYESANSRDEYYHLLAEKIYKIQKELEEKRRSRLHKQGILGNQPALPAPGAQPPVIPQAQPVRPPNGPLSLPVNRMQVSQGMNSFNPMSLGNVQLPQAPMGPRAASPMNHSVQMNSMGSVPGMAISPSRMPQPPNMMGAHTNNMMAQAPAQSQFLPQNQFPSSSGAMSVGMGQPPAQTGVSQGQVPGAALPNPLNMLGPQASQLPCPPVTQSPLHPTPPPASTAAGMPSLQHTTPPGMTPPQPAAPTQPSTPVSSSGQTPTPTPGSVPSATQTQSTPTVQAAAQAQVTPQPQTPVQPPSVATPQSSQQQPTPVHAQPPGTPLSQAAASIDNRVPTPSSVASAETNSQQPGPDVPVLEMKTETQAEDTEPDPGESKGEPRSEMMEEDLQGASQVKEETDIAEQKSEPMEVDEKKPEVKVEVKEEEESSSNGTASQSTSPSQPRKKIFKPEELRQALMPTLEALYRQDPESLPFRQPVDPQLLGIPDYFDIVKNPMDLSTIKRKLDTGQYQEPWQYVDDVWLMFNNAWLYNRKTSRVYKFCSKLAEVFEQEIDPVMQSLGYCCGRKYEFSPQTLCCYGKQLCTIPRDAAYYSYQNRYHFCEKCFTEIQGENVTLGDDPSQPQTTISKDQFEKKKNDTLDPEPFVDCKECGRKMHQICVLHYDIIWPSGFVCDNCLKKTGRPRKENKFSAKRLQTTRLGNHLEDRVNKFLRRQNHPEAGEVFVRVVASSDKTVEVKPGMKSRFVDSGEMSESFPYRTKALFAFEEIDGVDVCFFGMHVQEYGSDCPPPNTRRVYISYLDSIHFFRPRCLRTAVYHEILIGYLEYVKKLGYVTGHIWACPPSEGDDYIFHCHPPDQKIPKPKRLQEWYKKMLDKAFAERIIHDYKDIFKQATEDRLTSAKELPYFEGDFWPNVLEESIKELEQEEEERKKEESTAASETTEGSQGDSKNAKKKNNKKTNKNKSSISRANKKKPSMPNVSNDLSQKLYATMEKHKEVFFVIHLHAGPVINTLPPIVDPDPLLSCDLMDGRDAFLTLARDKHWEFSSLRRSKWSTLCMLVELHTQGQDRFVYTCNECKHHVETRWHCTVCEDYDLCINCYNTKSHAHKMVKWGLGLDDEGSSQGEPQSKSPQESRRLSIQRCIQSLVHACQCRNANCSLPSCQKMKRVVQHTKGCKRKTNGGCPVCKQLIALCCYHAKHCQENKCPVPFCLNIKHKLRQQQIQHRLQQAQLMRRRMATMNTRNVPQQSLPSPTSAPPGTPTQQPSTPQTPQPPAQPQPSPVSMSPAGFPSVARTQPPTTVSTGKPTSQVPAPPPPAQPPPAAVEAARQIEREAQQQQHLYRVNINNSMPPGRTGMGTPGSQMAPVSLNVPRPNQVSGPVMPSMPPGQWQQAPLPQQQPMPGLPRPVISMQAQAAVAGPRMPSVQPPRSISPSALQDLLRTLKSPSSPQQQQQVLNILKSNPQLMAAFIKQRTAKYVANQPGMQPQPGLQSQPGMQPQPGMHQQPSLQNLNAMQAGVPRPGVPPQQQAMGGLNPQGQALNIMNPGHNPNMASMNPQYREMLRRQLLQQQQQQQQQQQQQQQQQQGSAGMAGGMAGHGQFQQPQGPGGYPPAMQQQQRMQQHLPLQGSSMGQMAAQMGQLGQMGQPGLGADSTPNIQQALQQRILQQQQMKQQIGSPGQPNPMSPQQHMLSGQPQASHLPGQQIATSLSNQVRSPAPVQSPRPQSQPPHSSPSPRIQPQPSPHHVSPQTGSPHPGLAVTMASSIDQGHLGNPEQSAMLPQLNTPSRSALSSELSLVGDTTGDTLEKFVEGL
Protocol: LP1 cells were cultured in DMEM (Gibco, 41966-029) supplemented with 15 % FBS (Sigma, F9665); MM1S and LNCaP cells in RPMI 1640 ATCC modification (Gibco, […]
DMEM/F12 (Gibco, 11320074) supplemented with 1 % non-essential amino acids […]
additionally supplemented with 1 % penicillin/streptomycin (Gibco, 15070-063), and cells maintained in a humidified incubator with 5 % CO2 at 37 °C. The identity of all lines (except for MM1S which were recently purchased from ATCC) was authenticated by STR profiling (performed by Microsynth).
Quantification of CBP/EP300 degradation by Western blotting
LP1 cells plated on 6 well plates were treated with the stated compounds at a final concentration of 0.1 % DMSO for the stated time. Cells were harvested on ice, washed in PBS and lysed in RIPA buffer (50 mM tris pH 7.5, 2 mM EDTA, 150 mM NaCl, 0.5 % sodium deoxycholate, 1 % Triton X100) supplemented with cOmplete ™ protease inhibitor cocktail (Roche). Protein concentrations were determined using the Pierce ™ BCA Protein Assay Kit (Thermo Scientific, 23227) and equal amounts were separated on 4-12 % ExpressPl us™ PAGE gels (GenScript, M41215). Proteins were transferred to PVDF membranes, the membranes were blocked with 5 % milk (Merk Millipore, 115363) in PBS-T and proteins were stained with the following antibodies at 4 °C overnight: CBP […]
BRD4 (Bethyl Laboratories, A301-985A50, diluted 1:2000) and vinculin (Invitrogen, 42H89L44, diluted 1:1000). For detection, membranes were incubated for 1 h at room temperature with HRP-conjugated secondary antibodies (Southern Biotech, anti-rabbit […]
SuperSignal™ West Pico PLUS Chemiluminescent Substrate (Thermo Scientific, 34580) and the Vilber Fusion-FX7 imager. Bands were quantified using ImageJ software and protein levels normalized to protein from DMSO treated cells run on the same membrane. For dose response curves, data was fitted using a four -parameter dose-response curve in GraphPad Prism v. 9.5.1, where the top is fixed at 100 %. The DC50 was defined as the PROTAC concentration resulting in 50 % remaining protein. […]

SH-SY5Y cells = experiment: Cell viability (resazurin), SH-SY5Y; settings: 3 day treatment
Protocol: normalized to DMSO treated lanes on the same membrane. (Several compounds were
measured at the same time, so DMSO treated lanes are replicated here between
Figure S5. Anti-proliferation in additional cell lines. LNCaP (A and C) and SH-SY5Y (B)
cell viability following 3 day compound treatment, and LNCaP following 6 day treatment
(D), determined using resazurin.
After 3 days of treatment, dCE-2 only has a mild effect on the proliferation of LNCaP and
SH-SY5Y cells (Figure S5A and B).
the new CBP/EP300 PROTACs CBPD -268 and CBPD-4092,3 which have enhanced anti-
proliferative activity in LNcaP cells relative to their parent inhibitor s. However, although
these PROTACs have effects at very low concentrations, their effect plateaus and a
substantial proportion of cells remain viable at high compound concentrations. Similarly,
degradation of CBP and EP300, the maximal effect of this PROTAC is also limited under
the conditions we used (Figure S5C). Through this work it was clear to us that these […]
The primer sequences used were:
Gene Gene ID Forward Primer (5’-3’) Reverse primer (5’-3’)
myc NM_001354870.1 GTAGTGGAAAACCAGCC […]
Fluorescence (excitation = 560 nm, emission = 590 nm) was measured using a
spectraMax M5 microplate reader (Molecular Devices) and cell viability was calculated […]
values were calculated as the concentration required to inhibit cell viability to 50 % […]

CBP/EP300 = experiment: Western blot of CBP and EP300 levels in various cell lines; settings: 16 h, 1 μM
CRBN and CBP-BRD = CRBN and CBP-BRD (Homo sapiens, UniProt Q92793+Q96SW2); experiment: FluoPPI cellular ternary complex formation, CBP-BRD; settings: U2OS cells, 6 h
Sequence of CRBN and CBP-BRD (Q92793 1081-1211): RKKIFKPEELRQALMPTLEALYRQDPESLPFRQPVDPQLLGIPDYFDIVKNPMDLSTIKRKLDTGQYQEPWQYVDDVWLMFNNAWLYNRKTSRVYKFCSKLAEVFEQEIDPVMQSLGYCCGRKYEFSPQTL
Sequence of CRBN and CBP-BRD (Q96SW2 whole entry): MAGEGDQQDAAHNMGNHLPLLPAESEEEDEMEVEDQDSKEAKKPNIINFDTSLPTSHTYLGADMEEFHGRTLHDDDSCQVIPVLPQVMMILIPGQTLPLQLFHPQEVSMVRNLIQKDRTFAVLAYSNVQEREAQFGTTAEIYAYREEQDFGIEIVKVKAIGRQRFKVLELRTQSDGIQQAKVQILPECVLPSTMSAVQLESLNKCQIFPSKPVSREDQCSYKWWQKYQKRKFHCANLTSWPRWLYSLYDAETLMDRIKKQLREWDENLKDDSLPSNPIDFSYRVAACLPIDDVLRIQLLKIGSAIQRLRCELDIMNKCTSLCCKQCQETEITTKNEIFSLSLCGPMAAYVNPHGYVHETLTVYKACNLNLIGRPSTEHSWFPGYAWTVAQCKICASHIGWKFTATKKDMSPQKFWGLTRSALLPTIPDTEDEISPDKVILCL

Sequence of CRBN and CBP catalytic core (Q92793 1081-1700): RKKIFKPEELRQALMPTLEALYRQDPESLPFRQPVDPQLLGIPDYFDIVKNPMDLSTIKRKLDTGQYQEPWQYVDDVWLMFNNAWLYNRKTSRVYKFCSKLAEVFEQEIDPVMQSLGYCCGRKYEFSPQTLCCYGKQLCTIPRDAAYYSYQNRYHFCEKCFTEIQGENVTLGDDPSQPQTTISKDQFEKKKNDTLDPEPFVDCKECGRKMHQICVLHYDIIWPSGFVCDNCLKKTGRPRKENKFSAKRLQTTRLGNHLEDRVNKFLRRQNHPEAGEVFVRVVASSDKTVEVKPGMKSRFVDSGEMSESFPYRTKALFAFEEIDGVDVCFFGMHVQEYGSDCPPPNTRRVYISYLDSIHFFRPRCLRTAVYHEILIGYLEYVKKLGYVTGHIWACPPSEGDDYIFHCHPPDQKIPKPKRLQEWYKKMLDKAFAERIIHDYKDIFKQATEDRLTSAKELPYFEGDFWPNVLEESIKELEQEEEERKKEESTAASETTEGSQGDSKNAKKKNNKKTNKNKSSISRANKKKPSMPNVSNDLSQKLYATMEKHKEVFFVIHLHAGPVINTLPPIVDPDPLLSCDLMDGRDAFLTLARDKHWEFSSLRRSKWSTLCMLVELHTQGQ
Sequence of CRBN and CBP catalytic core (Q96SW2 whole entry): as the sequence (Q96SW2 whole entry) above

Cc1cc2c(NC(=O)c3cc(NC(=O)CCCCCCCCCCNc4cccc5c4C(=O)N(C4CCC(=O)NC4=O)C5=O)cc(-c4ccn(C)n4)c3)cccc2nn1 (stereo not drawn) [dCE-2]
ternary complex formation in cells with CBP catalytic core [1]: able to induce ternary complex formation | time at which CBP/EP300 degradation begins to occur (CBP; 1 μM, time course): ≤ 2 h | time to reach maximal CBP/EP300 degradation (Dmax) (CBP; 1 μM, time course): 16 to 24 h | % remaining CBP (CBP; 5 μM compound, 16 h, Western blot): 16% | DC50 (CBP; 16 h): 40 nM | Dmax (CBP; LP-1, 16 h): > 85% | effect on proliferation of SH-SY5Y cells (SH-SY5Y cells): mild effect; also recorded: limited effect | CBP/EP300 degradation in MM1S, LNCaP and SH-SY5Y cells (CBP/EP300): active degrader | ternary complex formation in cells with CRBN and CBP-BRD (CRBN and CBP-BRD): good ternary complex formation
